Laboratory results published in PubChem BioAssay (NCI).
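All cell lines were grown in 96-well plates and treated with compound for 48 hours. TGI marks complete inhibition of growth.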

What was measured:
Assay in all cases: NCI tumour cell line growth inhibition, 48 h
HOP-92 NSCLC = system: HOP-92 NSCLC
NCI-H460 lung = system: NCI-H460 lung
LOX IMVI melanoma = system: LOX IMVI melanoma
SR leukemia = system: SR leukemia
SK-MEL-5 melanoma = system: SK-MEL-5 melanoma
SF-295 CNS = system: SF-295 CNS
NCI-H23 lung = system: NCI-H23 lung
A498 renal = system: A498 renal
MCF7 breast = system: MCF7 breast
HCT-116 colon = system: HCT-116 colon
BT-549 breast = system: BT-549 breast
NCI-H522 lung = system: NCI-H522 lung
PC-3 prostate = system: PC-3 prostate
SK-OV-3 ovarian = system: SK-OV-3 ovarian
COLO 205 colon = system: COLO 205 colon
HL-60(TB) leukemia = system: HL-60(TB) leukemia
EKVX NSCLC = system: EKVX NSCLC
IGROV1 ovarian = system: IGROV1 ovarian
T-47D breast = system: T-47D breast
UO-31 renal = system: UO-31 renal
SNB-19 CNS = system: SNB-19 CNS
UACC-257 melanoma = system: UACC-257 melanoma
RXF 393 renal = system: RXF 393 renal
MDA-N = system: MDA-N
HCT-15 colon = system: HCT-15 colon
HT29 colon = system: HT29 colon
OVCAR-3 ovarian = system: OVCAR-3 ovarian
K-562 leukemia = system: K-562 leukemia
OVCAR-8 ovarian = system: OVCAR-8 ovarian
M14 melanoma = system: M14 melanoma
OVCAR-4 ovarian = system: OVCAR-4 ovarian
SF-539 CNS = system: SF-539 CNS
ACHN renal = system: ACHN renal
NCI-H226 lung = system: NCI-H226 lung
HS 578T breast = system: HS 578T breast
DU-145 prostate = system: DU-145 prostate
A549 NSCLC = system: A549 NSCLC
UACC-62 melanoma = system: UACC-62 melanoma
SN12C renal = system: SN12C renal
U251 CNS = system: U251 CNS
786-0 renal = system: 786-0 renal
NCI/ADR-RES ovarian = system: NCI/ADR-RES ovarian
HOP-62 NSCLC = system: HOP-62 NSCLC
SK-MEL-2 melanoma = system: SK-MEL-2 melanoma
OVCAR-5 ovarian = system: OVCAR-5 ovarian
CAKI-1 renal = system: CAKI-1 renal
SK-MEL-28 melanoma = system: SK-MEL-28 melanoma
MDA-MB-435 = system: MDA-MB-435
TK-10 renal = system: TK-10 renal
RPMI-8226 leukemia = system: RPMI-8226 leukemia
MALME-3M melanoma = system: MALME-3M melanoma
SW-620 colon = system: SW-620 colon
MOLT-4 leukemia = system: MOLT-4 leukemia
MDA-MB-231 breast = system: MDA-MB-231 breast
KM12 colon = system: KM12 colon
SF-268 CNS = system: SF-268 CNS
SNB-75 CNS = system: SNB-75 CNS
HCC-2998 colon = system: HCC-2998 colon
CCRF-CEM leukemia = system: CCRF-CEM leukemia

O=C(O)CC1OCC=C2C[N+]3([O-])CCC45c6ccccc6NC4C1C2CC53 (centres undefined)
TGI (HOP-92 NSCLC): > 100 µM | TGI (NCI-H460 lung): > 100 µM | TGI (LOX IMVI melanoma): > 100 µM | TGI (SR leukemia): > 100 µM | TGI (SK-MEL-5 melanoma): > 100 µM | TGI (SF-295 CNS): > 100 µM | TGI (NCI-H23 lung): > 100 µM | TGI (A498 renal): > 100 µM | TGI (MCF7 breast): > 100 µM | TGI (HCT-116 colon): > 100 µM | TGI (BT-549 breast): > 100 µM | TGI (NCI-H522 lung): > 100 µM | TGI (PC-3 prostate): > 100 µM | TGI (SK-OV-3 ovarian): > 100 µM | TGI (COLO 205 colon): > 100 µM | TGI (HL-60(TB) leukemia): > 100 µM | TGI (EKVX NSCLC): > 100 µM | TGI (IGROV1 ovarian): > 100 µM | TGI (T-47D breast): > 100 µM | TGI (UO-31 renal): > 100 µM | TGI (SNB-19 CNS): > 100 µM | TGI (UACC-257 melanoma): > 100 µM | TGI (RXF 393 renal): > 100 µM | TGI (MDA-N): > 100 µM | TGI (HCT-15 colon): > 100 µM | TGI (HT29 colon): > 100 µM | TGI (OVCAR-3 ovarian): > 100 µM | TGI (K-562 leukemia): > 100 µM | TGI (OVCAR-8 ovarian): > 100 µM | TGI (M14 melanoma): > 100 µM | TGI (OVCAR-4 ovarian): > 100 µM | TGI (SF-539 CNS): > 100 µM | TGI (ACHN renal): > 100 µM | TGI (NCI-H226 lung): > 100 µM | TGI (HS 578T breast): > 100 µM | TGI (DU-145 prostate): > 100 µM | TGI (A549 NSCLC): > 100 µM | TGI (UACC-62 melanoma): > 100 µM | TGI (SN12C renal): > 100 µM | TGI (U251 CNS): > 100 µM | TGI (786-0 renal): > 100 µM | TGI (NCI/ADR-RES ovarian): > 100 µM | TGI (HOP-62 NSCLC): > 100 µM | TGI (SK-MEL-2 melanoma): 34.2 µM | TGI (OVCAR-5 ovarian): > 100 µM | TGI (CAKI-1 renal): > 100 µM | TGI (SK-MEL-28 melanoma): > 100 µM | TGI (MDA-MB-435): > 100 µM | TGI (TK-10 renal): > 100 µM | TGI (RPMI-8226 leukemia): > 100 µM | TGI (MALME-3M melanoma): > 100 µM | TGI (SW-620 colon): > 100 µM | TGI (MOLT-4 leukemia): > 100 µM | TGI (MDA-MB-231 breast): > 100 µM | TGI (KM12 colon): > 100 µM | TGI (SF-268 CNS): > 100 µM

O=C(O)COc1cc(-c2ccccc2)nc2ccc(F)cc12
TGI (HOP-92 NSCLC): > 100 µM | TGI (NCI-H460 lung): > 100 µM | TGI (LOX IMVI melanoma): > 100 µM | TGI (SR leukemia): > 100 µM | TGI (SK-MEL-5 melanoma): > 100 µM | TGI (SF-295 CNS): > 100 µM | TGI (NCI-H23 lung): > 100 µM | TGI (A498 renal): > 100 µM | TGI (MCF7 breast): > 100 µM | TGI (HCT-116 colon): > 100 µM | TGI (BT-549 breast): > 100 µM | TGI (NCI-H522 lung): > 100 µM | TGI (PC-3 prostate): > 100 µM | TGI (SK-OV-3 ovarian): > 100 µM | TGI (COLO 205 colon): > 100 µM | TGI (HL-60(TB) leukemia): > 100 µM | TGI (EKVX NSCLC): > 100 µM | TGI (IGROV1 ovarian): > 100 µM | TGI (T-47D breast): > 100 µM | TGI (UO-31 renal): > 100 µM | TGI (SNB-19 CNS): > 100 µM | TGI (UACC-257 melanoma): > 100 µM | TGI (SNB-75 CNS): > 100 µM | TGI (MDA-N): > 100 µM | TGI (HCT-15 colon): > 100 µM | TGI (HT29 colon): > 100 µM | TGI (OVCAR-3 ovarian): > 100 µM | TGI (HCC-2998 colon): > 100 µM | TGI (K-562 leukemia): > 100 µM | TGI (OVCAR-8 ovarian): > 100 µM | TGI (M14 melanoma): > 100 µM | TGI (OVCAR-4 ovarian): > 100 µM | TGI (SF-539 CNS): > 100 µM | TGI (ACHN renal): > 100 µM | TGI (NCI-H226 lung): > 100 µM | TGI (HS 578T breast): > 100 µM | TGI (DU-145 prostate): > 100 µM | TGI (A549 NSCLC): > 100 µM | TGI (UACC-62 melanoma): > 100 µM | TGI (SN12C renal): > 100 µM | TGI (U251 CNS): > 100 µM | TGI (786-0 renal): > 100 µM | TGI (NCI/ADR-RES ovarian): > 100 µM | TGI (HOP-62 NSCLC): > 100 µM | TGI (SK-MEL-2 melanoma): > 100 µM | TGI (OVCAR-5 ovarian): > 100 µM | TGI (CAKI-1 renal): > 100 µM | TGI (CCRF-CEM leukemia): > 100 µM | TGI (SK-MEL-28 melanoma): > 100 µM | TGI (MDA-MB-435): > 100 µM | TGI (TK-10 renal): > 100 µM | TGI (RPMI-8226 leukemia): > 100 µM | TGI (MALME-3M melanoma): > 100 µM | TGI (SW-620 colon): > 100 µM | TGI (MOLT-4 leukemia): > 100 µM | TGI (MDA-MB-231 breast): > 100 µM | TGI (KM12 colon): > 100 µM | TGI (SF-268 CNS): > 100 µM
